# Test results published in patent publication US20210386743A1, “USE OF PDE9 INHIBITORS FOR TREATMENT” (The Johns Hopkins University, priority 2018, published 2021).
# “Also recorded” adds a separate entry of the source.
# How the values were obtained:
# Type in all cases: in vivo, mouse
# [1] = system: OVX+HFD+TAC female mice (C57BL/6N); assay: Echocardiography of cardiac function and structure in OVX+HFD+TAC female mice; settings: OVX+HFD+TAC females, vs vehicle; for left ventricular hypertrophy (LV Mass) / ejection fraction (EF) / fractional shortening (FS): serial echo, drug started 1 week after TAC; for left ventricular hypertrophy (LV Mass): oral gavage 20 mg/kg twice daily, 20 mg/kg
# Description: (§1) All animals were fed a high fat diet (HFD) consisting of 60% kcal derived from fat was fed to both male and female C57BL6N mice for 3 months. Mice were divided into two groups: 1) Controls with intact ovaries; 2) Ovariectomized (Ovx) mice. Mice were assigned to receive trans-aortic constriction (TAC) or sham surgery after 3 months of HFD, and further randomized to placebo vehicle and PDE9-I (PDE9 inhibitor oral gavage 20 mg/kg twice daily) (FIG. 1). Comparison of Group 1 and 2 tests the efficacy of PDE9-I to ameliorate and/or reverse HFD and pressure-overload pathophysiology independent of sex hormone status.
# (§2) Changes in cardiac function and structure were measured using echocardiogram, histopathology and markers of cardiac stress (Nppa Gene expression by RT-qPCR). For qPCR, RNA is isolated from left ventricular myocardium (Trizol Reagent, Invitrogen), reverse transcribed to cDNA (High Capacity RNA-to-cDNA Kit, Applied Biosystems, Life Technologies), and undergoes PCR amplification using TaqMan probes for atrial natriuretic peptide (Nppa) (mouse #Mm01255747_g1, rat #Rn00664637_g1). The threshold cycle value was determined using the crossing point method, and samples normalized to the GAPDH for each run. Echocardiography was performed in conscious mice using serial M-mode transthoracic echocardiography (VisualSonics Vevo 2100, 18-38 MHz transducer; SanoSite Inc.). Images were obtained and analyzed by an individual blinded to the animal condition.
# (§3) Female mice (C57BL/6N) were placed on a 60% fat diet starting at age 5-weeks. Two weeks later, there were randomized to receive bilateral oophorectomy or sham surgery. Cardiac imaging for ventricular function and morphometry was determined 2 months later. Between 8-11 weeks after ovariectomy, the mice underwent a second surgical procedure introducing a mild aortic constriction (TAC) in the transverse aorta to increase pressure load on the heart. The purpose of the TAC procedure was to stimulate the heart to synthesize natriuretic peptide, which is important for the generation of cyclic GMP which PDE9 regulates. Serial echocardiograms were obtained, and starting 1 week after TAC, mice were further randomized to receive vehicle control or a PDE9 inhibitor (PF-7943). Intact mouse metabolic studies, fat/lean mass determinations, and heart function were assessed. At terminal study, tissues were harvested for molecular signaling.
# [2] = system: OVX+HFD+TAC female mice (C57BL/6N); assay: Whole body metabolism by indirect calorimetry (CLAMS metabolic cage) in OVX+HFD+TAC female mice; settings: OVX+HFD+TAC females, vs vehicle; for oxygen consumption (VO2): normalized to body mass
# Description: as §1
# Whole body metabolism: Indirect calorimetry was used to assess metabolic parameters in live animals using the OxyMAX Comprehensive Lab Animal Monitoring System (Columbus Instruments, Columbus Ohio). Basic metabolic rate (VO2 consumption), VCO2 release and energy expenditure (EE) were measured by indirect calorimetry in high-fat-fed OVX mice groups treated with (Drug) and without PDE9 inhibitor (Control). Respiratory exchange ratio (RER) was calculated from VCO2 release-to-VO2 consumption ratio (VCO2 release/VO2 consumption). CLAMS cabinet was used to measure oxygen consumption rate at 22° C. (VO2), CO2 emission, respiratory exchange ratio, heat production, food consumption (g consumed per day), and total and ambulatory activity per day.
# as §3
# RER is calculated from VCO2/VO2 ratio. […] Even if fat mass is assumed to contribute only 15% of total metabolic activity relative to lean mass, these differences remain significant (data not shown). […] P values are for unpaired t-tests between groups.
# male HFD+TAC mice = assay: Cardiac remodeling (echocardiography, Nppa RT-qPCR) in obese male HFD+TAC mice; settings: vs vehicle; for natriuretic peptide (Nppa) gene expression in myocardium: RT-qPCR; for cardiac hypertrophy (LV mass): drug started 1 week after TAC
# Description: as §1, §2
# In a third experiment, we exposed male mice of a similar starting age (5 weeks) to the same HFD protocol, and then same TAC protocol. As before, mice were randomized to either vehicle control or active PDE9-inhibitor starting 1 week after the TAC procedure. FIG. 11.
# [3] = end of study, listed as PDE9 inhibitor
smiles,measurement,setting,value
C[C@@H]1CN(Cc2ncccn2)C[C@H]1c1nc2c(cnn2C2CCOCC2)c(=O)[nH]1 [PF 04447943],cardiac output,[1]; end of study,restoration towards normal control values
same,ejection fraction,[1]; end of study,restoration towards normal control values
same,"ventricular end-diastolic volume (Volume, d)",[1]; end of study,restoration towards normal control values
same,"ventricular end-systolic volume (Volume, s)",[1]; end of study,restoration towards normal control values
same,early to late atrial (E/A) filling,[1]; [3],restored; also recorded: restoration towards normal control values
same,isovolumic ventricular relaxation time (IVRT),[1]; [3],restored; also recorded: restoration towards normal control values
same,left ventricular hypertrophy (LV Mass),[1],reduced left ventricular hypertrophy
same,left ventricular hypertrophy (LV Mass),[1]; listed as PDE9 inhibitor,reduced LV mass
same,ejection fraction (EF),[1],greater
same,fractional shortening (FS),[1],greater fractional shortening
same,ejection fraction (EF),[1]; listed as PDE9 inhibitor,improved FS and EF
same,fractional shortening (FS),[1]; listed as PDE9 inhibitor,improved FS
same,oxygen consumption (VO2),[2]; listed as PDE9I,increases total oxygen consumption normalized to body mass
same,oxygen consumption (VO2),[2]; listed as PDE9 inhibitor,increases in oxygen consumption
same,carbon dioxide generation (VCO2),[2]; normalized to total body mass,increases
same,calculated energy expenditure (heat),[2],increased
same,respiratory exchange ratio (RER),[2],not significantly altered
same,natriuretic peptide (Nppa) gene expression in myocardium,male HFD+TAC mice; listed as PDE9-I,reduced
same,natriuretic peptide (Nppa) gene expression in myocardium,male HFD+TAC mice; listed as PDE9-inhibitor,reduced by active therapy
same,cardiac hypertrophy (LV mass),male HFD+TAC mice; listed as PDE9-inhibitor,reduced left heart mass
same,cardiac hypertrophy (LV mass),male HFD+TAC mice; listed as PDE9 inhibitor,significantly lowers cardiac hypertrophy
same,ejection fraction,male HFD+TAC mice; listed as PDE9-inhibitor,increases in both fractional shortening and ejection fraction
same,fractional shortening,male HFD+TAC mice; listed as PDE9-inhibitor,increases in both fractional shortening and ejection fraction
same,ejection fraction,male HFD+TAC mice; listed as PDE9 inhibitor,improves cardiac function
same,fractional shortening,male HFD+TAC mice; listed as PDE9 inhibitor,improves cardiac function
